# Laboratory results as given in patent publication US20260207563A1, “UREA COMPOUNDS AS ACTIVATORS OF POTASSIUM CHANNELS KV7.2/7.3 USEFUL IN THE TREATMENT OF CNS AND PNS DISORDERS” (ANGELINI PHARMA S.P.A., priority 2022, published 2026).
# Tests used:
# Format in all cases: cell-based
# [1] = biological target: T1, homomeric KV7.4 channel (KCNQ4) (Homo sapiens, UniProt P56696); assay: Automated patch-clamp (Qube) counter-screening assay against KV7.4 channel; conditions: CHO-K1 cells expressing KV7.4; class by maximal shift in the Vhalf at 30 μM
# T1 construct: host or cells: CHO-K1
# Source text: Assessment of In Vitro Potency Against KV7.4 Channels
# A counter-screening assay was also developed on the Qube against the homomeric KV7.4 channel (KCNQ4, Uniprot ID P56696). The cell line used was a stably transfected CHO-K1 with constitutive KV7.4 expression supplied by Charles River Laboratories.
# CHO-K1 cells stably expressing KV7.4 channels were maintained in the following culture media: • Hams F-12 with GlutaMAX™ (Life Technologies 31765027), • 10% Fetal clone 2 serum (Perbio Science SH30066.03), and • 250 μg/ml Geneticin™ selective antibiotic (G418, Invitrogen 1013-027).
# (§1) Cell maintenance, preparation, recording conditions and voltage protocols were all identical to those above.
# (§2) Analysis of Data for Assessment of Potency
# (§3) 10 concentrations of test compounds were applied to individual wells in quadruplicate to assess potency as a 1 in 3 dilution series from the maximal concentration of 30 μM. The average shift in the voltage for half activation (Vhalf) for each concentration was used to generate concentration-response curves fitted with a 4-parameter logistic model to estimate the EC50 from the point of inflection of the curve and the maximal shift in the Vhalf from the top of the curve.
# (§4) The lower the EC50 value, the higher the potency of the analyzed compound. The selectivity criteria is assigned on the basis of the maximal shift in the Vhalf at 30 μM. […] In Table 3, ND means that selectivity was not determined.
# [2] = biological target: T2, heteromeric KV7.3/KV7.5 channel (KCNQ3, KCNQ5) (Homo sapiens, UniProt O43525+Q9NR82); assay: Automated patch-clamp counter-screening against KV7.3/KV7.5 channel; conditions: HEK293 cells expressing Kv7.3/KV7.5; class by maximal shift in the Vhalf at 30 μM
# T2 construct: host or cells: HEK293
# Procedure: Assessment of in vitro potency against KV7.3/KV7.5 channels
# Counter-screening was also carried out against the heteromeric KV7.3/KV7.5 channel (KCNQ3, Uniprot ID 043525; KCNQ5, Uniprot ID Q9NR82). The cell line used was a stably transfected HEK293 cell line with constitutive Kv7.3 expression and tetracycline inducible KV7.5 expression supplied by Charles River Laboratories.
# Cells were maintained in the following culture media: • DMEM/F-12 with GlutaMAX™ (Life Technologies 31331-028), • 10% Tet Systems FCS (Clonetech 631106), • 500 μg/ml Geneticin™ selective antibiotic (G418, Invitrogen 1013-027), • 5 μg/ml Blasticidin S HCl (InvivoGen ant-bl-5), and • 100 μg/ml Zeocin (InvivoGen: ant-zn-5).
# as §1, §2, §3, §4
# [3] = biological target: T3, heteromeric KV7.2/KV7.3 channels (KCNQ2, KCNQ3) (Homo sapiens, UniProt O43525+O43526); assay: Automated patch-clamp (Sophion Qube 384) potency assay against KV7.2/KV7.3 channels; conditions: CHO-K1/Kv7.2/Kv7.3 cells; for EC50: EC50 from concentration-response of shift in Vhalf, 10 concentrations up to 30 μM, read-out: Kv7.2/7.3 EC50; for Kv7.2/7.3 ΔV1/2: maximal shift in the Vhalf from the top of the curve
# T3 construct: expressed in transfected cells; host or cells: CHO-K1
# Source text: Assessment of In Vitro Potency Against KV7.2/KV7.3 Channels
# An automated patch-clamp assay on the Sophion Qube 384 was developed for potency testing to identify small molecule activators of heteromeric KV7.2/KV7.3 channels (KCNQ2, Uniprot ID 043526; KCNQ3, Uniprot 043525).
# The cell line used was a stably transfected CHO-K1 cell line with constitutive KV7.2/KV7.3 expression.
# CHO-K1/Kv7.2/Kv7.3 cells were maintained in the following culture media: • DMEM/F-12 with GlutaMAX™ (Gibco 31331-028), • 10% Fetal clone 2 serum (Perbio Science SH30066.03), • 1 mg/ml Geneticin™ selective antibiotic (G418, Invitrogen 1013027), and • 5 μg/ml BlasticidinS HCl (Invivogen Ant-bl-5).
# On the day of the experiment, cells were resuspended in serum free media, counted and diluted to a final concentration of 3.5×10^6 cells per ml of media.
# Cells were then placed onto the Sophion Qube 384 and rested for a minimum of 1 hour.
# The following solutions were used for recording: • extracellular solution (in mM): 145 NaCl, 4 KCl, 1 MgCl2, 2 CaCl2), 10 HEPES, 10 glucose, pH 7.4, 315-320 mOsm. • intracellular solution (in mM): 120 KCl, 5.74 CaCl2), 1.75 MgCl2, 10 EGTA, 10 HEPES, 5 Na2ATP, pH 7.2, adjusted to 315 mOsm with sucrose.
# After establishing the whole-cell configuration, cells were held at −80 mV throughout the experiment. A current-voltage (I-V) protocol stepping from −100 to +20 mV for 1 second was applied to measure Kv7.2/Kv7.3 currents, each step was followed by a 200 ms pulse to 0 mV to measure the tail currents. From the I-V protocol a Boltzmann fit was applied to generate activation curves. Data were sampled at 25 kHz and filtered at 5 kHz (Bessel). Data were produced using multihole QChips. The I-V protocol was applied several times to establish the response in control conditions (typically 0.3% DMSO) and in the presence of the test compound.
# Data were reviewed in Sophion Analyser version 6.5.2 (Sophion Bioscience) for recording quality and filters were applied to remove any failed wells. Leak subtraction was applied to all recordings. Data filters for multihole QChips were typically: seal resistance>4 MΩ, capacitance >20 pF, baseline VHalf between 0 to −40 mV, baseline holding current between −2 to 2 nA, baseline steady state current at 20 mV >4 nA unless otherwise stated.
# as §2, §3, §4
Structure (SMILES),EC50 [3],Kv7.2/7.3 ΔV1/2 [3],Kv7.4 selectivity criteria [1],Kv7.3/7.5 selectivity criteria [2]
"O=C(NCc1ccnc(OCC(F)(F)F)c1)NC1CCc2ccc(F)cc21 (racemic) [Compound 81, (±)-1-(6-Fluoro-2,3-dihydro-1H-inden-1-yl)-3-((2-(2,2,2-trifluoroethoxy)pyridin-4-yl)methyl)urea]",310 nM,14.75 mV,A (Selective compounds showed Kv7.4 and/or Kv7.3/7.5 ΔV1/2 equal to or lower than 15 mV (letter A in table 3)),A (Selective compounds showed Kv7.4 and/or Kv7.3/7.5 ΔV1/2 equal to or lower than 15 mV (letter A in table 3))
"O=C(NCc1ccnc(OCc2ccccc2)c1)Nc1cccc(F)c1 [Compound 1, 1-((2-(Benzyloxy)pyridin-4-yl)methyl)-3-(3-fluorophenyl)urea]",600 nM,30.51 mV,B (Non-selective compounds showed Kv7.4 and/or Kv7.3/7.5 ΔV1/2 higher than 15 mV (letter B in table 3)),B (Non-selective compounds showed Kv7.4 and/or Kv7.3/7.5 ΔV1/2 higher than 15 mV (letter B in table 3))
"O=C(NCc1cccc(F)c1)NCc1ccnc(OCc2ccccc2)c1 [Compound 2, 1-((2-(Benzyloxy)pyridin-4-yl)methyl)-3-(3-fluorobenzyl)urea]",966 nM,16.51 mV,A (Selective compounds showed Kv7.4 and/or Kv7.3/7.5 ΔV1/2 equal to or lower than 15 mV (letter A in table 3)),A (Selective compounds showed Kv7.4 and/or Kv7.3/7.5 ΔV1/2 equal to or lower than 15 mV (letter A in table 3))
"CC(C)(C)[C@H](O)CNC(=O)NCc1ccnc(OCc2ccccc2)c1 [Compound 4, (S)-1-((2-(Benzyloxy)pyridin-4-yl)methyl)-3-(2-hydroxy-3,3-dimethylbutyl)urea]",1700 nM,27.28 mV,A (Selective compounds showed Kv7.4 and/or Kv7.3/7.5 ΔV1/2 equal to or lower than 15 mV (letter A in table 3)),B (Non-selective compounds showed Kv7.4 and/or Kv7.3/7.5 ΔV1/2 higher than 15 mV (letter B in table 3))
"CN(Cc1ccnc(OCC(F)(F)F)c1)C(=O)NCCC1(C(F)(F)F)CC1 [Compound 7, 1-Methyl-1-((2-(2,2,2-trifluoroethoxy)pyridin-4-yl)methyl)-3-(2-(1-(trifluoromethyl)cyclopropyl)ethyl)urea]",5130 nM,22.31 mV,A (Selective compounds showed Kv7.4 and/or Kv7.3/7.5 ΔV1/2 equal to or lower than 15 mV (letter A in table 3)),A (Selective compounds showed Kv7.4 and/or Kv7.3/7.5 ΔV1/2 equal to or lower than 15 mV (letter A in table 3))
"O=C(NCCC1(C(F)(F)F)CC1)NCc1ccnc(NCC(F)(F)F)c1 [Compound 16, 1-((2-((2,2,2-Trifluoroethyl)amino)pyridin-4-yl)methyl)-3-(2-(1-(trifluoromethyl)cyclopropyl)ethyl)urea]",6230 nM,20.12 mV,A (Selective compounds showed Kv7.4 and/or Kv7.3/7.5 ΔV1/2 equal to or lower than 15 mV (letter A in table 3)),A (Selective compounds showed Kv7.4 and/or Kv7.3/7.5 ΔV1/2 equal to or lower than 15 mV (letter A in table 3))

# The next lines start with results.
EC50 [3],Kv7.2/7.3 ΔV1/2 [3],Structure (SMILES),Kv7.4 selectivity criteria [1],Kv7.3/7.5 selectivity criteria [2]
472 nM,25.42 mV,"O=C(NCCC1(C(F)(F)F)CC1)NCc1ccnc(OCc2ccccc2)c1 [Compound 3, 1-((2-(Benzyloxy)pyridin-4-yl)methyl)-3-(2-(1-(trifluoromethyl)cyclopropyl)ethyl)urea]",A (Selective compounds showed Kv7.4 and/or Kv7.3/7.5 ΔV1/2 equal to or lower than 15 mV (letter A in table 3)),A (Selective compounds showed Kv7.4 and/or Kv7.3/7.5 ΔV1/2 equal to or lower than 15 mV (letter A in table 3))
1830 nM,27.09 mV,"O=C(NCCC1(C(F)(F)F)CC1)NCc1cc(OCc2ccccc2)ncn1 [Compound 11, 1-((6-(Benzyloxy)pyrimidin-4-yl)methyl)-3-(2-(1-(trifluoromethyl)cyclopropyl)ethyl)urea]",A (Selective compounds showed Kv7.4 and/or Kv7.3/7.5 ΔV1/2 equal to or lower than 15 mV (letter A in table 3)),B (Non-selective compounds showed Kv7.4 and/or Kv7.3/7.5 ΔV1/2 higher than 15 mV (letter B in table 3))
7650 nM,13.2 mV,"O=C(NCCC1(C(F)(F)F)CC1)NCc1ccnc(OCC2CCOCC2)c1 [Compound 12, 1-((2-((Tetrahydro-2H-pyran-4-yl)methoxy)pyridin-4-yl)methyl)-3-(2-(1-(trifluoromethyl)cyclopropyl)ethyl)urea]",A (Selective compounds showed Kv7.4 and/or Kv7.3/7.5 ΔV1/2 equal to or lower than 15 mV (letter A in table 3)),A (Selective compounds showed Kv7.4 and/or Kv7.3/7.5 ΔV1/2 equal to or lower than 15 mV (letter A in table 3))
4450 nM,22.29 mV,"O=C(NCCC1(C(F)(F)F)CC1)NCc1ccnc(OCc2ncco2)c1 [Compound 13, 1-((2-(Oxazol-2-ylmethoxy)pyridin-4-yl)methyl)-3-(2-(1-(trifluoromethyl)cyclopropyl)ethyl)urea]",A (Selective compounds showed Kv7.4 and/or Kv7.3/7.5 ΔV1/2 equal to or lower than 15 mV (letter A in table 3)),A (Selective compounds showed Kv7.4 and/or Kv7.3/7.5 ΔV1/2 equal to or lower than 15 mV (letter A in table 3))
392 nM,26.52 mV,"O=C(NCCC1(C(F)(F)F)CC1)NCc1ccnc(OCc2ccc(F)cc2)c1 [Compound 14, 1-((2-((4-Fluorobenzyl)oxy)pyridin-4-yl)methyl)-3-(2-(1-(trifluoromethyl)cyclopropyl)ethyl)urea]",B (Non-selective compounds showed Kv7.4 and/or Kv7.3/7.5 ΔV1/2 higher than 15 mV (letter B in table 3)),A (Selective compounds showed Kv7.4 and/or Kv7.3/7.5 ΔV1/2 equal to or lower than 15 mV (letter A in table 3))
2020 nM,25.72 mV,"O=C(NCCC1(C(F)(F)F)CC1)NCc1ccnc(OCC2CC(F)(F)C2)c1 [Compound 15, 1-((2-((3,3-Difluorocyclobutyl)methoxy)pyridin-4-yl)methyl)-3-(2-(1-(trifluoromethyl)cyclopropyl)ethyl)urea]",A (Selective compounds showed Kv7.4 and/or Kv7.3/7.5 ΔV1/2 equal to or lower than 15 mV (letter A in table 3)),A (Selective compounds showed Kv7.4 and/or Kv7.3/7.5 ΔV1/2 equal to or lower than 15 mV (letter A in table 3))
